The record followed here is ChEMBL document CHEMBL1201862, “PubChem BioAssay data set” (2004).

Test systems include SW-620; NCI-H226; OVCAR-8; OVCAR-4; NCI/ADR-RES; OVCAR-5; T47D; SNB-75; RPMI-8226; CCRF-CEM; MCF7; CAKI-1; LOX IMVI; HCT-15; A549; MDA-MB-231; UO-31.
What all share (experiment): inhibition of tumour cell growth, NCI panel, 48 h

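Following 48 hours of exposure in 96-well plates, responses at five concentrations were used to interpolate endpoints linearly. GI50: concentration for 50% inhibition of growth.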 Calls of active or inactive are those of the source. Cut-off read from the data, not from the text of the source: active = GI50 up to about 1.1 µM and inactive = higher.

Regarding `CCOC(C)O[C@H]1C(=O)OCC1(C)C` (stereo not given in full), the GI50 with SW-620, in the test on NCI-H226, in the test with OVCAR-8, in the test on OVCAR-4, with NCI/ADR-RES and with OVCAR-5 was > 100 µM (inactive) each time. The GI50 in the test on T47D, with SNB-75, in the test on RPMI-8226, with CCRF-CEM, in the test with MCF7 and in the test on CAKI-1 was > 100 µM (inactive) each time. The GI50 in the test on LOX IMVI is > 100 µM (inactive); in the test with HCT-15, over 100 µM; in the test on A549, > 100 µM (inactive); in the test on MDA-MB-231 it was > 100 µM (inactive); with UO-31 it was > 100 µM (inactive).
As for `CC(=O)OCC1OC(OC2CC3C(C)(C)C(OC(C)=O)CC[C@]3(C)C3CCC45CC4(CCC5[C@@H](C)C[C@H](O)C(O)C(C)(C)O)[C@]23C)C(O)C(O)C1O` (stereo not given in full), the GI50 in the test on SW-620, with NCI-H226, with OVCAR-8, with OVCAR-4, in the test with NCI/ADR-RES and in the test on OVCAR-5 was > 10 µM (inactive) each time. Further, the GI50 in the test on T47D was > 10 µM (inactive); in the test on SNB-75, > 10 µM (inactive); in the test with RPMI-8226, 5.18 µM (inactive); with CCRF-CEM, > 10 µM (inactive); in the test with MCF7, 6.61 µM (inactive); in the test on CAKI-1 it was > 10 µM (inactive). The GI50 in the test with LOX IMVI was > 10 µM (inactive); in the test with HCT-15 it was over 10 µM; with A549 it was > 10 µM (inactive); in the test on MDA-MB-231 it was > 10 µM (inactive); in the test with UO-31, > 10 µM (inactive).
For the compound `O=C1/C(=C/c2ccc(F)cc2)CNC/C1=C\c1ccc(F)cc1`, the GI50 in the test on SW-620 was 0.364 µM (active); with NCI-H226, 2.82 µM (inactive); in the test with OVCAR-8, 2.07 µM (inactive); with OVCAR-4, 2.09 µM (inactive); in the test on NCI/ADR-RES, 2.95 µM (inactive); with OVCAR-5 it was 2.88 µM (inactive). For the same compound, the GI50 in the test with T47D is 3.37 µM (inactive); in the test on SNB-75, 3.75 µM (inactive); with RPMI-8226, 0.275 µM (active); in the test with CCRF-CEM it was 0.445 µM (active); with MCF7, 0.813 µM (active); in the test with CAKI-1 it was 1.12 µM (inactive). Moreover, the GI50 in the test on LOX IMVI is 0.63 µM (active); with HCT-15, 0.498 µM; with A549, 2.92 µM (inactive); in the test on MDA-MB-231, 2.39 µM (inactive); in the test on UO-31 it was 1.81 µM (inactive).
For the compound `COc1ccc(C(=O)CCN(C)C)c2ccccc12`, the GI50 in the test on SW-620 was 18 µM (inactive); in the test with NCI-H226 it was > 100 µM (inactive); with OVCAR-8 it was 19.5 µM (inactive); in the test with OVCAR-4, 24.3 µM (inactive); in the test with NCI/ADR-RES it was 35.9 µM (inactive); in the test with OVCAR-5, 55.6 µM (inactive). Moreover, the GI50 in the test on T47D is 11.3 µM (inactive); with SNB-75, 23 µM (inactive); with RPMI-8226, 0.504 µM (active); in the test on CCRF-CEM, 2.79 µM (inactive); in the test on MCF7, 4.63 µM (inactive); with CAKI-1 it was 6.78 µM (inactive). Moreover, the GI50 in the test on LOX IMVI is 18.9 µM (inactive); with HCT-15 it was 21.4 µM; in the test with A549 it was > 58.2 µM (inactive); with MDA-MB-231, 19.1 µM (inactive); in the test with UO-31, 21.5 µM (inactive).
As for `NCC(O)CSP(=O)(O)O` (stereo not given), the GI50 in the test on SW-620, with NCI-H226, in the test with OVCAR-8, with OVCAR-4, in the test with NCI/ADR-RES and with OVCAR-5 was > 100 µM (inactive) in each case. The GI50 with T47D, in the test on SNB-75, in the test with RPMI-8226, in the test on CCRF-CEM, with MCF7 and with CAKI-1 was > 100 µM (inactive) in each case. For the same compound, the GI50 is > 100 µM (inactive) in the test on LOX IMVI; over 100 µM in the test on HCT-15; > 100 µM (inactive) in the test on A549; > 100 µM (inactive) in the test on MDA-MB-231; > 100 µM (inactive) in the test on UO-31.
